Test [1] addresses T1, NAD(P)H dehydrogenase [quinone] 1 (Homo sapiens, UniProt P15559).
Description: Inhibition of human recombinant NQO1 in presence of BSA
For test [2], the target named is T1, NAD(P)H dehydrogenase [quinone] 1. This is another data set of the same source.
Description: Inhibition of human recombinant NQO1
The subject of test [3] is MIA PaCa-2. Kind of test: Cytotoxicity against human MIA PaCa2 cells by MTT assay. The class given is functional, cell-based. (Tetrazolium assays rely on reduction of a dye to a coloured formazan, in cell work by metabolically active cells.)
For test [4], the system named is MIA PaCa-2. The experiment in a line: Effect on respiration rate in human MIA PaCa2 cells assessed as oxygen consumption per 10^6 cells at 100 uM. The test is classed as functional.
The subject of test [5] is MIA PaCa-2. Kind of test: Growth inhibition of human MIA PaCa2 cells. The class given is functional, cell-based.
The test system of test [6] is MIA PaCa-2. Kind of test: Induction of superoxide formation in human MIA PaCa2 cells. The test is classed as functional, cell-based.

Usually IC50 stands for the point on the concentration scale where inhibition reaches its midpoint. A higher IC50 goes with lower potency.

Calls of active or inactive are those of the source. The rule behind the calls is not given here.

T1 sequence (P15559 whole entry): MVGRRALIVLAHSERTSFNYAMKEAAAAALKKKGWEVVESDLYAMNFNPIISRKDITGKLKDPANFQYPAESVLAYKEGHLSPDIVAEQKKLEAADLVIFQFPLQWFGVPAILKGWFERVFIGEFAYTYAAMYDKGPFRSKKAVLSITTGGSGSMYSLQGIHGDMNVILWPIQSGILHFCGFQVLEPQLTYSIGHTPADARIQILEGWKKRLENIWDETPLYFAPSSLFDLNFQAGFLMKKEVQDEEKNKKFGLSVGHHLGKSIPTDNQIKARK

Take `O=c1c(C(c2ccc3ccccc3c2)c2c(O)oc3ccccc3c2=O)c(O)oc2ccccc12`: the values for the IC50 in test [1] and in test [2] were 8.5 µM and 140 nM, respectively.
For the compound `O=c1c(Cc2c(O)oc3cc(O)ccc3c2=O)c(O)oc2cc(O)ccc12`, the IC50 in the test on MIA PaCa-2 [3] was determined as 190 µM; in test [1] it was 0.35 µM; in test [2] it was 5 nM. Also, the Activity with MIA PaCa-2 [4] is 2.6 nmol/min; in the test with MIA PaCa-2 [5], “Dose-dependent effect”.
In the test with MIA PaCa-2 [3], `O=c1oc2ccccc2c(O)c1Cc1c(O)c2ccccc2oc1=O` [DICUMAROL] yielded an IC50 of 75 µM. Moreover, the results for the Activity in the test with MIA PaCa-2 [4] and in the test on MIA PaCa-2 [5] were 7 nmol/min and “Dose-dependent effect”, respectively. In addition, the outcome with MIA PaCa-2 [6] was Active.
On to `COc1ccc(C(c2c(O)c3ccccc3oc2=O)c2c(O)c3ccccc3oc2=O)cc1`, for which the half-maximal inhibitory concentration (IC50) in test [1] is 8.7 µM; in test [2], 220 nM.
Regarding `O=c1c(C(c2cnc3ccccc3c2)c2c(O)oc3ccccc3c2=O)c(O)oc2ccccc12`, the IC50 in test [1] is 18 µM; in test [2], 380 nM.
As for `O=C1OC2C=CC=CC2=C2Oc3c(c(=O)oc4ccccc34)C(c3c(O)c4ccccc4oc3=O)C12` (stereo unspecified), the IC50 worked out at 140 µM in the test with MIA PaCa-2 [3], 0.6 µM in test [1] and 250 nM in test [2]. Besides, the figures for the Activity in the test on MIA PaCa-2 [4] and in the test with MIA PaCa-2 [5] were 2.5 nmol/min and “Dose-dependent effect”, respectively.
In the test on MIA PaCa-2 [3], `O=c1oc2ccccc2c(O)c1C1c2ccccc2Oc2c1c(=O)oc1ccccc21` (stereo unspecified) had an IC50 of 150 µM. In addition, the values for the Activity with MIA PaCa-2 [4] and in the test with MIA PaCa-2 [5] were 2.5 nmol/min and “Dose-dependent effect”, respectively.
Consider `O=c1c(C(c2cccs2)c2c(O)oc3ccccc3c2=O)c(O)oc2ccccc12`, for which the values for the half-inhibitory concentration (IC50) in test [1] and in test [2] were 10 µM and 550 nM, respectively.
Turning to `COc1cc(C(c2c(O)c3ccccc3oc2=O)c2c(O)c3ccccc3oc2=O)ccc1O`, the values for the IC50 in test [1] and in test [2] were 10 µM and 650 nM, respectively.
Turning to `Nc1cc(=O)oc2ccccc12`, the IC50 was found to be 13 µM in test [1] and 3250 nM in test [2].
On to `O=c1c(C(c2ccco2)c2c(O)oc3ccccc3c2=O)c(O)oc2ccccc12`, for which the IC50 in test [1] was 5.9 µM; in test [2] it was 1300 nM.

For the origin of these results see ChEMBL document CHEMBL1138328, “Coumarin-based inhibitors of human NAD(P)H:quinone oxidoreductase-1. Identification, structure-activity, off-target effects and in vitro human pancreatic cancer toxicity” (J Med Chem, 2007).
